Laboratory results: patent publication US9789096B2, “Methods and compositions for selective and targeted cancer therapy” (Board of Regents of the University of Texas System, priority 2013, dated 2017)
Read-outs that look alike come from different tables or passages of the source.

Tests used:
[1] = tested on: H1819; assay: Cell viability dose-response, H1819; format: cell-based, human
Protocol: (§1) FIG. 6A. […] Cell viability is plotted vs. compound concentration. Compound was added to cells plated at 15% confluence in 96-well plates in RPMI-1640 media supplemented with 5% Fetal Bovine Serum and 2 mM L-Glutamine. After 4 days of incubation, ATP levels were measured using Cell Titer Glo (Promega). Data are presented as the average of 2 replicates ±SEM.
(§2) Selectivity may be measured by the half maximal inhibitory concentration (IC50), which, as used herein, is a measure of the effectiveness of a compound in killing cells. This quantitative measure indicates how much of a particular compound is needed to kill a particular cell population by half (e.g., as indicated by the amount of ATP). […] The IC50 can be determined by constructing a dose-response curve. The lower the IC50, the higher the potency, and the greater the difference between IC50 values for different cell lines (e.g., sensitive lines vs. insensitive lines, and sensitive lines vs. normal lines) the greater the selectivity. […]
(§3) With this information, we synthesized and tested a series of small molecules derived in conception from the oxalamide and chromone scaffold including N-acyl ureas, as shown in Tables 6-8. Each compound was tested in a 12-point dose-response study starting at 50 micromolar and decreasing in 3-fold increments to sub-nanomolar concentrations, in duplicate. Additionally, one or more additional cell line was tested in the same way.

[2] = tested on: H2122; assay: Cell viability dose-response, H2122; format: cell-based, human
Protocol: as §1, §2, §3

[3] = Homo sapiens, NCI-H1819, 12-point dose-response starting at 50 micromolar, 3-fold increments, in duplicate, read-out: toxicity data, H1819
[4] = Homo sapiens, NCI-H2122, 12-point dose-response starting at 50 micromolar, 3-fold increments, in duplicate, read-out: toxicity data, H2122
[5] = Homo sapiens, NCI-H1819, read-out: toxicity data, H1819
[6] = Homo sapiens, NCI-H1819, Tables 3 and 4, read-out: IC50 (uM) vs indicated non-small cell lung cancer cell line H1819
[7] = Homo sapiens, NCI-H2122, Tables 3 and 4, read-out: IC50 (uM) vs indicated non-small cell lung cancer cell line H2122

Structure (SMILES) | IC50 [1, 3] [µM] | IC50 [2, 4] [µM] | further results
COc1ccc(CCNC(=O)C(=O)NN2CCN(C)CC2)cc1 [SW208131-1-A] | ≥ 49.5 | ≥ 49.5 | –
COc1ccc(CCN(C)C(=O)C(=O)Nc2ccc(Cl)cc2)cc1 [SW208153-1-A] | ≥ 49.5 | 10.5 | –
COc1ccc(CCNC(=O)C(=O)NC2CCCC2)cc1 [SW208033-1-A] | ≥ 49.5 | ≥ 49.5 | –
COc1ccc(CCNC(=O)C(=O)CNc2ccncc2)cc1 [SW208130-1-A] | ≥ 49.5 | ≥ 49.5 | –
COc1ccc(CCNC(=O)C(=O)Nc2cc(F)ccc2Br)cc1 [SW206877-1-A] | ≥ 49.5 | ≥ 49.5 | –
COc1cccc(CCNC(=O)C(=O)Nc2ccc(Cl)cc2C)c1 [SW206965-1] | ≥ 49.5 | ≥ 49.5 | –
COc1ccc(CCNC(=O)C(=O)Nc2ccc(Cl)c(Br)c2)cc1 [SW206954-1] | ≥ 49.5 | 0.871 | –
O=C(NCCc1ccc(F)cc1)C(=O)Nc1ccc(Cl)cc1 [SW208039-1-A] | ≥ 49.5 | 47.5 | –
COc1ccc(CCNC(=O)C(=O)Nc2cnccc2C)cc1 [SW208134-1-A] | ≥ 49.5 | ≥ 49.5 | –
CCOc1ccc(CCNC(=O)C(=O)Nc2ccc(Cl)cc2)cc1 [SW208061-1-A] | ≥ 49.5 | ≥ 49.5 | –
COc1ccc(CCNC(=O)C(=O)Nc2cccc(OC)c2)cc1 [SW206871-1-A] | ≥ 49.5 | 0.932 | –
COc1ccc(CCNC(=O)C(=O)Nc2c(Cl)cccc2Cl)cc1 [SW206890-1-A] | ≥ 49.5 | ≥ 49.5 | –
COc1ccc(CCNC(=O)c2ccc3cccc(O)c3n2)cc1 [SW208056-1-A] | 29.8 | 30.2 | –
COc1ccc(CCNC(=O)Nc2ccc(Cl)cc2)cc1 [SW208045-1-A] | – | – | IC50 [1, 5]: ≥ 49.5 µM; IC50 ([2]; Homo sapiens, NCI-H2122, read-out: toxicity data, H2122): ≥ 49.5 µM
COc1ccc(CCNC(=O)NC(=O)c2ccccc2)cc1 [SW208142-1-A] | ≥ 49.5 | 1.09 | –
COc1ccc(CCNC(=O)C(=O)Nc2ccc(Br)c(Br)c2)cc1 [SW206955-1] | ≥ 49.5 | 0.421 | –
Cc1ccccc1CCNC(=O)C(=O)Nc1ccc(Cl)cc1 [SW208027-1-A] | ≥ 49.5 | ≥ 49.5 | –
COc1ccc(CCNC(=O)C(=O)Nc2ccc(Cl)cc2Br)cc1 [SW206953-1] | 41.7 | ≥ 49.5 | –
COc1ccc(CCNC(=O)C(=O)Nc2cc(C)cnc2Cl)cc1 [SW208144-1-A] | ≥ 49.5 | ≥ 49.5 | –
COc1ccc(CCNC(=O)c2ccc3cccc(F)c3n2)cc1 [SW208055-1-A] | ≥ 49.5 | ≥ 49.5 | –
COc1ccc(CCNC(=O)c2nc3ccccc3[nH]2)cc1 [SW208050-1-A] | ≥ 49.5 | ≥ 49.5 | –
COc1ccc(CCNC(=O)C(=O)Nc2cccc(F)c2C)cc1 [SW206882-1-A] | ≥ 49.5 | ≥ 49.5 | –
COc1ccc(CCNC(=O)C(=O)Nc2cccc(Br)n2)cc1 [SW208126-1-A] | ≥ 49.5 | ≥ 49.5 | –

Structure (SMILES) | IC50 [1, 3] [µM] | IC50 [2, 4] [µM] | further results
COc1ccc(CCNC(=O)C(=O)N2CCc3ccccc3C2)cc1 [SW208060-1-A] | ≥ 49.5 | ≥ 49.5 | –
COc1ccc(CCNC(=O)C(=O)Nc2ccncc2)cc1 [SW208135-1-A] | ≥ 49.5 | ≥ 49.5 | –
COc1ccc(CCNC(=O)C(=O)Nc2ccccc2)cc1 [SW206967-1] | ≥ 49.5 | 0.456 | –
COc1ccc(CCNC(=O)C(=O)Nc2ccc(Cl)c(F)c2)cc1 [SW206952-1] | ≥ 49.5 | 0.294 | –
COc1ccc(CCCNC(=O)NCc2ccc(Cl)cc2)cc1 [SW208121-1-A] | 5.75 | 3.67 | –
COc1ccc(CCNC(=O)C(=O)N2CCN(C)CC2)cc1 [SW208048-1-A] | ≥ 49.5 | ≥ 49.5 | –
COc1ccc(CCNC(=O)C(=O)N2CCCCC2)cc1 [SW208030-1-A] | ≥ 49.5 | ≥ 49.5 | –
COc1ccc(CCNC(=O)C(=O)NCc2ccc(Cl)cc2)cc1 [SW208025-1-A] | ≥ 49.5 | ≥ 49.5 | –
COc1ccc(CCNC(=O)C(=O)Nc2ccc(F)c(Cl)c2)cc1 [SW206860-1-A] | ≥ 49.5 | 0.738 | –
COc1ccc2nc(NC(=O)c3ccc([C@@H](N)c4ccccc4)cc3)sc2c1 [SW208109] | – | – | IC50 [1, 6]: 7.75 µM; IC50 [2, 7]: 0.067 µM
COc1ccc(CCNC(=O)C(=O)N(C)c2cccc(F)c2)cc1 [SW208028-1-A] | ≥ 49.5 | ≥ 49.5 | –
Cc1ccc(CCNC(=O)C(=O)Nc2ccc(Cl)cc2)cc1 [SW208036-1-A] | ≥ 49.5 | ≥ 49.5 | –
COc1ccc(CCNC(=O)C(=O)N2CCc3ccccc32)cc1 [SW208059-1-A] | ≥ 49.5 | ≥ 49.5 | –
COc1ccc(CCNC(=O)C(=O)Nc2cc(F)c(F)c(Br)c2)cc1 [SW206876-1-A] | ≥ 49.5 | ≥ 49.5 | –
COc1ccc(CCNC(=O)C(=O)Nc2ccc(OC)c(C)c2)cc1 [SW206970-1] | ≥ 49.5 | 0.809 | –
COc1ccc(CCNC(=O)C(=O)Nc2ccc(C)c(F)c2)cc1 [SW206880-1-A] | ≥ 49.5 | 0.306 | –
COc1ccc(CCNC(=O)C(=O)Nc2ccc(Cl)c(OC)c2)cc1 [SW206973-1] | 49 | ≥ 49.5 | –
COc1ccc(CCNC(=O)COc2ccc(Cl)cc2)cc1 [SW208038-1-A] | ≥ 49.5 | ≥ 49.5 | –
C#CCOc1ccc2nc(NC(=O)c3ccc(C(=O)c4ccc(OC)cc4)cc3)sc2c1 [SW208187] | – | – | IC50 [1, 6]: 0.697 µM; IC50 [2, 7]: 0.288 µM
O=c1c(Cc2ccc(F)cc2)coc2cc(OCc3cnn(-c4ccccc4)c3)ccc12 [SW209188-1] | – | – | AC50 ([1]; Homo sapiens, NCI-H1819, Table 8, 12-point dose-response starting at 50 micromolar): 49.5 µM; AC50 ([2]; Homo sapiens, NCI-H2122, Table 8, 12-point dose-response starting at 50 micromolar): 0.086 µM
O=C(NCCc1ccc(O)cc1)C(=O)Nc1ccc(Cl)cc1 [SW208023-1-A] | 7.74 | 0.257 | –
COc1ccc(CCNC(=O)C(=O)Nc2c(Br)cccc2Br)cc1 [SW206887-1-A] | ≥ 49.5 | ≥ 49.5 | –
COc1ccc(CCNC(=O)C(=O)NC2CC2)cc1 [SW208031-1-A] | ≥ 49.5 | ≥ 49.5 | –

Structure (SMILES) | IC50 [1, 3] [µM] | IC50 [2, 4] [µM] | further results
O=C(NCc1ccccc1)NCc1ccccc1 [SW208062-1-A] | – | ≥ 49.5 | IC50 [1, 5]: ≥ 49.5 µM
C#CCOc1ccc(CCNC(=O)C(=O)Nc2ccc(C(=O)c3ccccc3)cc2)cc1 [SW207038-2-A] | ≥ 49.5 | 3.17 | –
COc1ccc(CCNC(=O)CNc2ccc(Cl)cc2)cc1 [SW208041-1-A] | ≥ 49.5 | 48.4 | –
COc1ccc(CCNC(=O)C(=O)Nc2ccc(Cl)c(Cl)c2)cc1 [SW206960-1] | ≥ 49.5 | 0.491 | –
COc1ccc(CCNC(=O)C(=O)NC2CCCCC2)cc1 [SW208034-1-A] | ≥ 49.5 | ≥ 49.5 | –
COc1ccc(CCNC(=O)C(=O)Nc2ccc(F)cc2)cc1 [SW206961-1] | ≥ 49.5 | 0.286 | –
COc1ccc(CCNC(=O)C(=O)Oc2ccccc2)cc1 [SW208147-1-A] | ≥ 49.5 | 2.07 | –
COc1ccc(CCNC(=O)c2nc3ccccc3o2)cc1 [SW208125-1-A] | ≥ 49.5 | 30.4 | –
COc1ccc(CCNC(=O)C(=O)Nc2ccc(OC)cc2C)cc1 [SW206968-1] | ≥ 49.5 | ≥ 49.5 | –
COc1ccc(NC(=O)Nc2ccc(OC)cc2)cc1 [SW113878-2-A] | ≥ 49.5 | ≥ 49.5 | –
COc1ccc(CCNC(=O)C(=O)N2CCOCC2)cc1 [SW208044-1-A] | ≥ 49.5 | ≥ 49.5 | –
COc1ccc(CCNC(=O)C(=O)Nc2ccc(Cl)cc2)cc1 [SW027951-2-A] | – | – | IC50 ([1]; 12-point dose-response starting at 50 micromolar, 3-fold increments, in duplicate, read-out: toxicity data, H1819): ≥ 49.5 µM; IC50 ([2]; 12-point dose-response starting at 50 micromolar, 3-fold increments, in duplicate, read-out: toxicity data, H2122): 0.28 µM
COc1ccc(CCNC(=O)C(=O)Nc2ccc(C(=O)c3ccccc3)cc2)cc1 [SW206966-1] | ≥ 49.5 | 0.085 | –
COc1ccc(CCNC(=O)C(=O)Nc2cc(Cl)c(Br)c(Cl)c2)cc1 [SW206875-1-A] | 17.8 | 25.3 | –
COc1ccc(CCNC(=O)C(=O)Nc2cncc(C)c2)cc1 [SW208140-1-A] | 16.5 | 2.62 | –
O=C(NCCc1ccccc1)C(=O)Nc1ccc(Cl)cc1 [SW113361-2-A] | ≥ 49.5 | ≥ 49.5 | –
COc1ccc(CNC(=O)C(=O)NCc2ccc(Cl)cc2)cc1 [SW208026-1-A] | ≥ 49.5 | ≥ 49.5 | –
COc1ccc(CCNC(=O)C(=O)N2CCCC2)cc1 [SW208049-1-A] | ≥ 49.5 | ≥ 49.5 | –
COc1ccc(CNC(=O)CNc2ccc(Cl)cc2)cc1 [SW208042-1-A] | ≥ 49.5 | ≥ 49.5 | –
COc1ccc(CCNC(=O)C(=O)NC2CCCCCC2)cc1 [SW208035-1-A] | ≥ 49.5 | ≥ 49.5 | –
COc1ccc(CCNC(=O)C(=O)Nc2cc(F)c(Br)c(F)c2)cc1 [SW206872-1-A] | ≥ 49.5 | ≥ 49.5 | –
